Laboratory results: ChEMBL document CHEMBL3608203, “Benzylated and prenylated flavonoids from the root barks of Cudrania tricuspidata with pancreatic lipase inhibitory activity” (Bioorg Med Chem Lett, 2015)
The source made the active and inactive calls. The calls are words filed in the database; no cut-off is given here.

Tests used:
[1] = biological target: T1, Pancreatic triacylglycerol lipase (Sus scrofa, UniProt P00591); assay: Inhibition of porcine pancreatic lipase pre-incubated for 15 mins before p-nitrophenylbutyrate substrate addition by microplate reader based method
T1 sequence (P00591 whole entry): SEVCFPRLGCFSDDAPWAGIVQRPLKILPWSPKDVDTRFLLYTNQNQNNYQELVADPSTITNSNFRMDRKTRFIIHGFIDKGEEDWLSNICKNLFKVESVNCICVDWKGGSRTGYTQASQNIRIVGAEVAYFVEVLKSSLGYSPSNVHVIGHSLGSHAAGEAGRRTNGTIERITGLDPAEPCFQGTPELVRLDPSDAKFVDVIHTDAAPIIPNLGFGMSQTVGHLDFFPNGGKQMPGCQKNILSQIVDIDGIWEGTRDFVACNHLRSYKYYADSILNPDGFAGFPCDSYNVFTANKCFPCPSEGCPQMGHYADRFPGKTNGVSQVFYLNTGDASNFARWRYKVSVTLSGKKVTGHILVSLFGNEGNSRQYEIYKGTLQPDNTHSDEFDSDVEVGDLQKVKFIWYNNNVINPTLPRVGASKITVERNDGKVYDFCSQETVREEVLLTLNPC

[2] = biological target: T2, Pancreatic triacylglycerol lipase (Sus scrofa) (UniProt P00591); assay: Inhibition of porcine pancreatic lipase at 100 ug/ml pre-incubated for 15 mins before p-nitrophenylbutyrate substrate addition by microplate reader based method
T2 sequence (whole entry): T1 sequence (P00591 whole entry)

[3] = biological target: T2, Pancreatic triacylglycerol lipase (Sus scrofa); assay: Mixed type inhibition of porcine pancreatic lipase pre-incubated for 15 mins before p-nitrophenylbutyrate substrate addition by Lineweaver-Burk plot method

| Compound | IC50 [1] | inhibition [2] | inhibition [3] |
| --- | --- | --- | --- |
| CC1(C)C=Cc2c(cc3occc(=O)c3c2O)O1 | > 100 µM | 27.5% |  |
| O=C1c2c(cc(O)c(O)c2O)O[C@H](c2ccc(O)cc2)[C@H]1O | > 100 µM | 40.1% |  |
| CC(C)(O)CCc1c(O)cc(O)c2c1O[C@@H](c1cc3c(cc1O)OC(C)(C)C=C3)CC2=O | 84.6 µM | 52% |  |
| CC(C)=CCc1c(O)c(Cc2ccc(O)cc2)c(O)c2c1O[C@H](c1ccc(O)cc1)CC2=O | 54.8 µM | 70.1% |  |
| COc1ccc(-c2coc3cc(O)cc(O)c3c2=O)cc1 [BIOCHANIN] | > 100 µM | 6.1% |  |
| CC(C)=CCc1c(O)cc2c(c1O)C(=O)C[C@@H](c1cc3c(cc1O)OC(C)(C)C=C3)O2 [CUDRAFLAVANONE A] | 6.5 µM | 81.4% | Active |
| O=C1c2c(O)cc(O)cc2O[C@H](c2ccc(O)cc2)[C@H]1O [DIHYDROKAEMPFEROL] | > 100 µM | 10.8% |  |
| O=c1c(-c2ccc(O)cc2)coc2cc(O)cc(O)c12 [GENISTEIN] | > 100 µM | 3.2% |  |
| O=c1c(O)c(-c2ccc(O)cc2)oc2cc(O)cc(O)c12 [KAEMPFEROL] | > 100 µM | 37% |  |
| O=c1c(O)c(-c2ccc(O)cc2O)oc2cc(O)cc(O)c12 [MORIN] | > 100 µM | 26.3% |  |
| O=C1C[C@@H](c2ccc(O)cc2)Oc2cc(O)cc(O)c21 [NARINGENIN] | > 100 µM | 25.2% |  |
| CC(C)=CCc1c(O)cc(O)c2c1OC(c1ccc(O)cc1)CC2=O (configuration not stated) [SOPHORAFLAVANONE B] | 76.9 µM | 55.5% |  |
| CC(C)=CCc1c(O)cc2occ(-c3ccc(O)cc3)c(=O)c2c1O [WIGHTEONE] | > 100 µM | 49.6% |  |
